As usually defined, the CC50 is the concentration at which the toxic effect on the cells reaches its halfway point. Usually EC50 stands for the concentration that produces a half-maximal response. A low value points to a more potent agent. By Ki is commonly meant the equilibrium dissociation constant of an inhibitor or competing ligand from its target.

In one data set the test system is Rift Valley fever virus. The data set is described as follows: Antiviral activity against Rift Valley fever virus assessed as inhibition of viral replication. In kind it is functional, organism-based.
Data set [1] can be described thus: Cytotoxicity against human MT4 cells after 4 days by MTT assay. In kind it is cell-based.
Data set [2] deals with Human immunodeficiency virus 1. The class given is functional, organism-based. The conditions noted are these: Human immunodeficiency virus 1, 3B, MT4, 96 h.
A further data set has as its system Sindbis virus. The data set is described as follows: Antiviral activity against Sindbis virus assessed as inhibition of viral replication. In kind it is functional, organism-based.
The test system of a further data set is Coxsackievirus B4. The data set is described as follows: Antiviral activity against Coxsackievirus B4 assessed as inhibition of viral replication. In kind it is functional, organism-based.
In a further data set the test system is Yellow fever virus. Description: Antiviral activity against Yellow fever virus assessed as inhibition of viral replication. In kind it is functional, organism-based.
The next data set concerns Vaccinia virus. The data set is described as follows: Antiviral activity against Vaccinia virus assessed as inhibition of viral replication. In kind it is functional, organism-based. Conditions: Orthopoxvirus vaccinia.
The test system of data set [3] is Respiratory syncytial virus. Description: Antiviral activity against Respiratory syncytial virus assessed as inhibition of viral replication. In kind it is functional, organism-based.
In the next data set the test system is West Nile virus. Description: Antiviral activity against West Nile virus assessed as inhibition of viral replication. In kind it is functional, organism-based.
For data set [4], the target named is Human immunodeficiency virus type 1 reverse transcriptase (Human immunodeficiency virus 1, UniProt Q72547). The data set is described as follows: Inhibition of RNA-dependent DNA polymerase activity of HIV1 reverse transcriptase p66/p51 heterodimer using [8-3H]dGTP as substrate after 30 mins by liquid scintillation counting.
In the next data set the test system is Human alphaherpesvirus 2. The data set is described as follows: Antiviral activity against HSV-2 assessed as inhibition of viral replication. In kind it is functional, organism-based.
A short description of data set [5]: in vitro. The conditions noted are these: human, MT4 cells.
Another data set deals with Human alphaherpesvirus 1. The data set is described as follows: Antiviral activity against HSV1 assessed as inhibition of viral replication. The class given is functional, organism-based.
For another data set, the system named is Human respirovirus 3. Description: Antiviral activity against Parainfluenza 3 virus assessed as inhibition of viral replication. The class given is functional, organism-based.
Data set [6] concerns Vesicular stomatitis virus. The data set is described as follows: Antiviral activity against Vesicular stomatitis virus assessed as inhibition of viral replication. The class given is functional, organism-based.
A short description of data set [7]: in vitro. Conditions: human, MT4 cells. The source holds these as a separate data set.
For data set [8], the system named is Mammalian orthoreovirus 1. Description: Antiviral activity against Reovirus 1 assessed as inhibition of viral replication. In kind it is functional, organism-based.
The test system of data set [9] is Human immunodeficiency virus 2. Description: Antiviral activity against Human immunodeficiency virus type 2 ROD infected in human MT4 cells assessed as inhibition of virus-induced cytopathic effect after 4 days by MTT assay. The class given is functional, organism-based. Conditions: ISOLATE ROD. In general terms: Protection from cytopathic effect is a common read-out in antiviral testing.

Data set [10] in a line: Inhibition of DNA-dependent DNA polymerase activity of HIV1 reverse transcriptase p66/p66 homodimer using activated DNA and [alpha-32P]dATP after 30 mins by liquid scintillation counting. Also on record: species or system Human immunodeficiency virus 1.
The next data set concerns Feline coronavirus. Description: Antiviral activity against Feline coronavirus assessed as inhibition of viral replication. In kind it is functional, organism-based.
The next data set relates to Punta Toro virus. Description: Antiviral activity against Punta Toro virus assessed as inhibition of viral replication. In kind it is functional, organism-based.
For data set [11], the system named is Human immunodeficiency virus 2. The data set is described as follows: Antiviral activity against Human immunodeficiency virus type 2 ROD infected in human CEM cells assessed as inhibition of virus-induced giant cell formation after 4 days by microscopic analysis. In kind it is functional, organism-based. The conditions noted are these: ISOLATE ROD, CCRF-CEM.

The subject of another data set is Dengue virus. Description: Antiviral activity against Dengue virus assessed as inhibition of viral replication. The class given is functional, organism-based.
In data set [12] the test system is Human immunodeficiency virus 1. Description: microbe, parasite or virus in culture. The conditions noted are these: Human immunodeficiency virus 1, 3B, MT4, 96 h.

Each structure is given as a SMILES string. The source made the active and inactive calls. No cut-off for these calls is given here.

Regarding `Cc1cc(C)cc(C(=O)c2cc(Cl)ccc2OCCn2c(C)cc(=O)[nH]c2=O)c1`, the outcome (with Rift Valley fever virus; in the data set with Sindbis virus; in the data set on Coxsackievirus B4; with Yellow fever virus; with Vaccinia virus; in data set [3]) was inactive. Moreover, the outcome (in the data set with West Nile virus; in the data set with Human alphaherpesvirus 2; in the data set with Human alphaherpesvirus 1; in the data set with Human respirovirus 3; in data set [6]; in data set [8]) was inactive. Moreover, the result (in data set [9]; in the data set with Feline coronavirus; with Punta Toro virus; in data set [11]; in the data set with Dengue virus) was inactive. Moreover, the cytotoxic concentration (CC50) at 96 h in data set [1] is greater than 303000 nM. The EC50 in [2] came out at 4090 nM; in data set [12] it was 20 nM. Besides, the Ki in [4] stood at 1700 nM; in [10], 730 nM. For the same compound, the selectivity ratio was greater than 74 in the data set “in vitro [5]” and greater than 15100 in the data set “in vitro [7]”.
Consider `Cc1cccc(C(=O)c2cc(Cl)ccc2OCCn2ccc(=O)[nH]c2=O)c1`, for which the outcome (in the data set with Rift Valley fever virus; with Sindbis virus; with Coxsackievirus B4; with Yellow fever virus; in the data set with Vaccinia virus; in [3]) was inactive. In addition, the result (with West Nile virus; in the data set on Human alphaherpesvirus 2; in the data set with Human alphaherpesvirus 1; with Human respirovirus 3; in data set [6]; in [8]) was inactive. Further, the outcome (in data set [9]; in the data set with Feline coronavirus; with Punta Toro virus; in [11]; with Dengue virus) was inactive. Further, the CC50 at 96 h in data set [1] is greater than 325000 nM. The values for the EC50 in [2] and in data set [12] were 52000 nM and 52 nM, respectively. The values for the Ki in [4] and in [10] were 210 nM and 490 nM, respectively. For the same compound, the selectivity ratio in the data set “in vitro [5]” is greater than 6; in “in vitro [7]” it was greater than 6250.
As for `O=C(c1ccccc1)c1cc(Cl)ccc1OCCn1ccc(=O)[nH]c1=O`, the outcome (with Rift Valley fever virus; in the data set with Sindbis virus; with Coxsackievirus B4; with Yellow fever virus; in the data set on Vaccinia virus; in data set [3]) was inactive. The result (with West Nile virus; in the data set with Human alphaherpesvirus 2; with Human alphaherpesvirus 1; in the data set on Human respirovirus 3; in data set [6]; in [8]) was inactive. In addition, the outcome (in data set [9]; in the data set on Feline coronavirus; in the data set on Punta Toro virus; in data set [11]; in the data set with Dengue virus) was inactive. Besides, the 50% cytotoxic concentration (CC50) at 96 h in data set [1] is greater than 337000 nM. Further, the EC50 in [2] was greater than 337000 nM; in [12] it was 89 nM. The inhibition constant (Ki) was 650 nM in [4] and 980 nM in data set [10]. For the same compound, the figures for the selectivity ratio in the data set “in vitro [5]” and in the data set “in vitro [7]” were 1 and greater than 3790, respectively.
For the compound `O=C(c1cc(Br)cc(Br)c1)c1cc(Cl)ccc1OCCn1ccc(=O)[nH]c1=O`, the result (in the data set with Rift Valley fever virus; in the data set on Sindbis virus; with Coxsackievirus B4; with Yellow fever virus; in the data set on Vaccinia virus; in [3]) was inactive. Further, the result (with West Nile virus; in the data set with Human alphaherpesvirus 2; in the data set with Human alphaherpesvirus 1; in the data set on Human respirovirus 3; in [6]; in [8]) was inactive. Moreover, the result (in [9]; with Feline coronavirus; in the data set with Punta Toro virus; in data set [11]; with Dengue virus) was inactive. The CC50 at 96 h in [1] was greater than 236000 nM. In addition, the half-maximal effective concentration (EC50) in [2] was greater than 237000 nM; in data set [12] it was 32 nM. Further, the values for the inhibitory constant (Ki) in [4] and in [10] were 470 nM and 2300 nM, respectively. The selectivity ratio was 1 in “in vitro [5]” and greater than 7390 in the data set “in vitro [7]”.
On to `O=C(c1ccccc1)c1cc(F)ccc1OCCn1ccc(=O)[nH]c1=O`, for which the result (with Rift Valley fever virus; in the data set with Sindbis virus; in the data set on Coxsackievirus B4; with Yellow fever virus; with Vaccinia virus; in [3]) was inactive. Moreover, the result (in the data set on West Nile virus; in the data set with Human alphaherpesvirus 2; in the data set with Human alphaherpesvirus 1; in the data set on Human respirovirus 3; in [6]; in data set [8]) was inactive. Also, the outcome (in data set [9]; in the data set on Feline coronavirus; in the data set with Punta Toro virus; in [11]; in the data set on Dengue virus) was inactive. In data set [1], this compound showed a CC50 at 96 h greater than 353000 nM. Besides, the concentration for a half-maximal effect (EC50) in data set [2] came to 171000 nM; in [12], 510 nM. Besides, the Ki came to 2600 nM in data set [4] and 2900 nM in [10]. In addition, the selectivity ratio in “in vitro [5]” was greater than 2; in the data set “in vitro [7]” it was greater than 694.
For the compound `O=C(c1ccccc1)c1cc(Br)ccc1OCCn1ccc(=O)[nH]c1=O`, the result (in the data set on Rift Valley fever virus; with Sindbis virus; with Coxsackievirus B4; in the data set on Yellow fever virus; in the data set with Vaccinia virus; in data set [3]) was inactive. The result (in the data set with West Nile virus; with Human alphaherpesvirus 2; in the data set on Human alphaherpesvirus 1; with Human respirovirus 3; in data set [6]; in data set [8]) was inactive. For the same compound, the result (in [9]; in the data set on Feline coronavirus; with Punta Toro virus; in data set [11]; with Dengue virus) was inactive. In data set [1], this compound came in with a cytotoxic concentration (CC50) at 96 h greater than 301000 nM. Further, the figures for the EC50 in data set [2] and in [12] were greater than 301000 nM and 65 nM, respectively. For the same compound, the Ki worked out at 450 nM in data set [4] and 2000 nM in [10]. Further, the values for the selectivity ratio in the data set “in vitro [5]” and in the data set “in vitro [7]” were 1 and greater than 4630, respectively.

The values above are taken from ChEMBL document CHEMBL1833830, “1-[2-(2-Benzoyl- and 2-benzylphenoxy)ethyl]uracils as potent anti-HIV-1 agents” (Bioorg Med Chem, 2011).
